Results taken from ChEMBL document CHEMBL1799949, “Enantioselective binding of second generation pyrrolobenzoxazepinones to the catalytic ternary complex of HIV-1 RT wild-type and L100I and K103N drug resistant mutants” (Bioorg Med Chem Lett, 2011).

Key:
[1] = target: T1, Human immunodeficiency virus type 1 reverse transcriptase (Human immunodeficiency virus 1, UniProt Q72547); test: Inhibition of HIV1 wild type reverse transcriptase
[2] = target: T2, Human immunodeficiency virus type 1 reverse transcriptase (Human immunodeficiency virus 1, UniProt Q72547, L100I); test: Inhibition of HIV1 reverse transcriptase L100I mutant
[3] = target: T3, Human immunodeficiency virus type 1 reverse transcriptase (Human immunodeficiency virus 1, UniProt Q72547, K103N); test: Inhibition of HIV1 reverse transcriptase K103N mutant
[4] = target: T4, Human immunodeficiency virus type 1 reverse transcriptase (Human immunodeficiency virus 1, UniProt Q72547, V179D); test: Inhibition of HIV1 reverse transcriptase V179D mutant
[5] = target: T3, Human immunodeficiency virus type 1 reverse transcriptase; test: Inhibition of HIV1 free reverse transcriptase K103N mutant
[6] = target: T3, Human immunodeficiency virus type 1 reverse transcriptase; test: Inhibition of HIV1 reverse transcriptase K103N mutant/poly(rA)/oligo(dT) DNA/dTTP ternary complex
[7] = target: T2, Human immunodeficiency virus type 1 reverse transcriptase; test: Inhibition of HIV1 reverse transcriptase L100I mutant/poly(rA)/oligo(dT) DNA binary complex
[8] = target: T4, Human immunodeficiency virus type 1 reverse transcriptase; test: Inhibition of HIV1 reverse transcriptase V179D mutant/poly(rA)/oligo(dT) DNA binary complex
[9] = target: T2, Human immunodeficiency virus type 1 reverse transcriptase; test: Inhibition of HIV1 free reverse transcriptase L100I mutant
[10] = target: T3, Human immunodeficiency virus type 1 reverse transcriptase; test: Inhibition of HIV1 reverse transcriptase K103N mutant/poly(rA)/oligo(dT) DNA binary complex
[11] = target: T1, Human immunodeficiency virus type 1 reverse transcriptase; test: Inhibition of HIV1 free wild type reverse transcriptase
[12] = target: T4, Human immunodeficiency virus type 1 reverse transcriptase; test: Inhibition of HIV1 free reverse transcriptase V179D mutant
[13] = target: T1, Human immunodeficiency virus type 1 reverse transcriptase; test: Inhibition of HIV1 wild type reverse transcriptase/poly(rA)/oligo(dT) DNA/dTTP ternary complex
[14] = target: T4, Human immunodeficiency virus type 1 reverse transcriptase; test: Inhibition of HIV1 reverse transcriptase V179D mutant/poly(rA)/oligo(dT) DNA/dTTP ternary complex
[15] = target: T1, Human immunodeficiency virus type 1 reverse transcriptase; test: Inhibition of HIV1 wild type reverse transcriptase/poly(rA)/oligo(dT) DNA binary complex
[16] = target: T2, Human immunodeficiency virus type 1 reverse transcriptase; test: Inhibition of HIV1 reverse transcriptase L100I mutant/poly(rA)/oligo(dT) DNA/dTTP ternary complex

Row | Compound | IC50 [1] [µM] | IC50 [2] [µM] | IC50 [3] [µM] | IC50 [4] [µM] | Ki [5] [µM] | Ki [6] [µM] | Ki [7] [µM] | Ki [8] [µM] | Ki [9] [µM] | Ki [10] [µM] | Ki [11] [µM] | Ki [12] [µM] | Ki [13] [µM] | Ki [14] [µM] | Ki [15] [µM] | Ki [16] [µM]
1 | CCC1(c2ccc(CSc3ccccc3)cc2)Oc2ccccc2-n2cccc2C1=O (racemic) | 0.06 | 0.99 | 0.25 | 0.15 |  |  |  |  |  |  |  |  |  |  |  | 
2 | CCC1(c2ccc(CSc3ccc(F)cc3)cc2)Oc2ccccc2-n2cccc2C1=O (racemic) | 0.25 | > 400 | 3.35 | > 40 |  |  |  |  |  |  |  |  |  |  |  | 
3 | CCC1(c2ccc(CSc3ccc(Br)cc3)cc2)Oc2ccccc2-n2cccc2C1=O (racemic) | 0.06 | > 400 | 1.16 | 0.29 |  |  |  |  |  |  |  |  |  |  |  | 
4 | CCC1(c2ccc(CSc3c(Cl)cccc3Cl)cc2)Oc2ccccc2-n2cccc2C1=O (racemic) | 7.36 | > 400 | > 400 | > 40 |  |  |  |  |  |  |  |  |  |  |  | 
5 | CCC1(c2ccc(CSc3ccc(F)cc3Cl)cc2)Oc2ccccc2-n2cccc2C1=O (racemic) | 0.61 | > 400 | 20.5 | > 40 |  |  |  |  |  |  |  |  |  |  |  | 
6 | CCC1(c2ccc(COc3ccccc3)cc2)Oc2ccccc2-n2cccc2C1=O (racemic) | 0.15 | 0.2 | 0.4 |  |  |  |  |  |  |  |  |  |  |  |  | 
7 | CCC1(c2ccc(COc3cccc(Cl)c3)cc2)Oc2ccccc2-n2cccc2C1=O (racemic) | 0.1 | 0.25 | 0.3 | 0.3 |  |  |  |  |  |  |  |  |  |  |  | 
8 | CCC1(c2ccc(CSc3ccccc3)cc2)Oc2ccccc2-n2cccc2C1=O (single isomer, unassigned; (+)) |  |  |  |  | 1.35 | 0.78 | 0.7 | 0.78 | 0.7 | 1.35 | 0.42 | 0.78 | 0.1 | 0.54 | 0.42 | 0.51
9 | CCC1(c2ccc(CSc3ccc(Br)cc3)cc2)Oc2ccccc2-n2cccc2C1=O (single isomer, unassigned; (+)) |  |  |  |  | 2.21 | 1.04 | 1.2 | 0.62 | 1.2 | 2.21 | 0.4 | 0.62 | 0.11 | 0.19 | 0.4 | 0.03
10 | CCC1(c2ccc(CSc3ccc(F)cc3Cl)cc2)Oc2ccccc2-n2cccc2C1=O (single isomer, unassigned; (+)) |  |  |  |  | 0.51 | 0.02 | 0.2 | 0.14 | 0.2 | 0.51 | 0.09 | 0.14 | 0.01 | 0.12 | 0.09 | 0.15
